# Source: patent US20240408169A1 (priority 2023, published 2024)
# Like-named read-outs stand apart in the source and are kept apart here. *1 amine or outer side, *2 acyl side, *3 side chain or, on linkers, in order; H or OH if unused. Where a SMILES comes first, the peptide text is derived from it. Bridges are numbered along the chain shown (N, C = ends). [ ]: non-standard residue; d: D form. The star is where a group is joined. X52 = CN1C[C@@H]2C[C@H]1CN2c1ccc(-c2ccc(Cl)cc2C[C@@H](C(=O)[*:2])N(C)[*:1])cc1; NMePhe(2-(4-MorPh),5-Cl) = CN[C@@H](Cc1cc(Cl)ccc1-c1ccc(N2CCOCC2)cc1)C(=O)O; X1 = C[C@H]1CN(c2ccc(-c3ccc(Cl)cc3C[C@@H](C(=O)[*:2])N(C)[*:1])cc2)CCN1C; X36 = Cc1cc(-c2ccc(Cl)cc2C[C@@H](C(=O)[*:2])N(C)[*:1])ccc1N1CCN(C)CC1; X12 = CN1CCN(c2ccc(-c3ccc(F)cc3C[C@@H](C(=O)[*:2])N(C)[*:1])cc2)CC1; X83 = CN([C@@H](Cc1cc(Cl)ccc1-c1cnn2c1COCC2)C(=O)[*:2])[*:1]; NMehhhLys(Me) = CN([C@@H](CCCCCCCN(C)[*:3])C(=O)[*:2])[*:1]; X22 = CN([C@@H](Cc1cc(Cl)ccc1-c1cnn(C)c1)C(=O)[*:2])[*:1]; X64 = CN([C@@H](Cc1cc(Cl)ccc1OC1(C)CC1)C(=O)[*:2])[*:1]; Oxane2carbonyl(2R-CF3) = O=C([C@@]1(C(F)(F)F)CCCCO1)*; cBuCO(3,3-F2-1-CF3) = O=C(C1(C(F)(F)F)CC(F)(F)C1)*; Pro(trans-4-F) = O=C(O)[C@@H]1C[C@@H](F)CN1; X27 = O=C([C@]1(C(F)(F)F)CCCCO1)*; Nva(5-OH) = N[C@@H](CCCO)C(=O)O; Gly(cPr) = N[C@H](C(=O)O)C1CC1; X9 = C[C@@]1(C(=O)*)CC1(F)F
# How the values were obtained:
# NCI-H1048 cells = assay: MTT proliferation assay, NCI-H1048; format: cell-based; conditions: 5 days compound exposure, 1:3 serial dilution starting at 10 μM;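 also: Dose-response in 96-well plates over 8 or 10 concentration points, with exposure spanning 3-4 cell doublings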
# WI-38 cells = assay: MTT proliferation assay, WI-38; format: cell-based; conditions: 3 days compound exposure, 1:3 serial dilution starting at 10 μM;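 also: Eight- or ten-point dilution series, with exposure length chosen to span about three to four cell doublings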
# CyclinB1/CDK1 = biological target: T1, CyclinB1/CDK1 (Homo sapiens, UniProt P14635); assay: Fluorescence Polarization (FP) competitive binding assay, Cyclin B1/Cdk1;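 also: fluorescence polarization read after equilibration at room temperature, with IC50 taken from serially diluted dose-response curves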
# T1 construct: purchased Eurofins, discovery 14-450
# CyclinA2/CDK2 = biological target: T2, CyclinA2/CDK2 (Homo sapiens, UniProt P20248); assay: Fluorescence Polarization (FP) competitive binding assay, Cyclin A2/Cdk2;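 also: plates equilibrated two hours at room temperature before polarization reading, IC50 fitted from eight-concentration compound titration curves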
# T2 construct: purchased CRELUX Protein Services
# OVCAR3 cells = assay: MTT proliferation assay, OVCAR3; format: cell-based; conditions: 5 days compound exposure, 1:3 serial dilution starting at 10 μM;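 also: compound given as an 8- or 10-point series, one day after plating, with exposure covering roughly 3-4 cell doublings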
# CyclinE1/CDK2 = biological target: T3, CyclinE1/CDK2 (Homo sapiens, UniProt P24864); assay: Fluorescence Polarization (FP) competitive binding assay, Cyclin E1/Cdk2;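 also: readings taken after two-hour equilibration at room temperature in HEPES buffer with NaCl, DTT, NP-40 and BSA, IC50 fitted from eight-concentration serial dilution series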
# T3 construct: purchased Eurofins, discovery 14-475
# [1] = 10 nM Cyclin B1/Cdk1, 2 nM FAM probe; average of 2-3 independent experiments; read-out: Cyclin B FP IC50
# [2] = 8 nM Cyclin A2/Cdk2, 2 nM FAM probe, average of 2-3 independent experiments, read-out: Cyclin A FP IC50
# [3] = 10 nM Cyclin E1/Cdk2, 2 nM FAM probe, average of 2-3 independent experiments, read-out: Cyclin E FP IC50
structure (smiles),measurement,setting,value
CC(C)C[C@@H]1NC(=O)[C@@H](N(C)C(=O)[C@@H](NC(=O)[C@@H]2C[C@@H](F)CN2C(=O)[C@]2(C(F)(F)F)CCCCO2)C2CC2)CCCCCCCN(C)C(=O)[C@H](Cc2cc(Cl)ccc2-c2cnn(C)c2)N(C)C1=O [Example 183] (X27-[Pro(trans-4-F)][Gly(cPr)][NMehhhLys(Me)]L[X22]; lactam 3-C),GI50,NCI-H1048 cells,10 nM
same,GI50,WI-38 cells,5070 nM
same,IC50,CyclinB1/CDK1; [1],20 nM
same,IC50,CyclinA2/CDK2; [2],30 nM
same,GI50,OVCAR3 cells,20 nM
same,IC50,CyclinE1/CDK2; [3],280 nM
CC(C)C[C@@H]1NC(=O)[C@@H](N(C)C(=O)[C@@H](CC(=O)[C@@H]2C[C@@H](F)CN2C(=O)C2(C(F)(F)F)CC(F)(F)C2)C2CC2)CCCCCCN(C)C(=O)[C@H](Cc2cc(Cl)ccc2C2=CCOCC2)N(C)C1=O [Example 71],GI50,NCI-H1048 cells,70 nM
same,GI50,WI-38 cells,13800 nM
same,IC50,CyclinB1/CDK1; [1],20 nM
same,IC50,CyclinA2/CDK2; [2],20 nM
same,GI50,OVCAR3 cells,90 nM
same,IC50,CyclinE1/CDK2; [3],1590 nM
"CC(C)C[C@@H]1NC(=O)[C@@H](N(C)C(=O)[C@@H](NC(=O)[C@@H]2C[C@@H](F)CN2C(=O)[C@]2(C)CC2(F)F)C2CC2)CCCCCCCN(C)C(=O)[C@H](Cc2cc(Cl)ccc2-c2ccc(N3CCOCC3)cc2)N(C)C1=O [Example 399] (X9-[Pro(trans-4-F)][Gly(cPr)][NMehhhLys(Me)]L[NMePhe(2-(4-MorPh),5-Cl)]; lactam 3-C)",GI50,NCI-H1048 cells,220 nM
same,GI50,WI-38 cells,3650 nM
same,IC50,CyclinB1/CDK1; [1],20 nM
same,IC50,CyclinA2/CDK2; [2],70 nM
same,GI50,OVCAR3 cells,110 nM
same,IC50,CyclinE1/CDK2; [3],3000 nM
CC(C)C[C@@H]1NC(=O)[C@@H](N(C)C(=O)[C@@H](NC(=O)[C@@H]2C[C@@H](F)CN2C(=O)C2(C(F)(F)F)CC(F)(F)C2)C2CC2)C/C=C\CCCCN(C)C(=O)[C@H](Cc2cc(Cl)ccc2-c2cnn(C)c2)N(C)C1=O [Example 168],GI50,NCI-H1048 cells,10 nM
same,GI50,WI-38 cells,13100 nM
same,IC50,CyclinB1/CDK1; [1],20 nM
same,IC50,CyclinA2/CDK2; [2],20 nM
same,GI50,OVCAR3 cells,10 nM
same,IC50,CyclinE1/CDK2; [3],160 nM
CC(C)C[C@@H]1NC(=O)[C@@H](N(C)C(=O)[C@@H](NC(=O)[C@@H]2C[C@@H](F)CN2C(=O)[C@@]2(C(F)(F)F)CCCCO2)C2CC2)CCCCCCCN(C)C(=O)[C@H](Cc2cc(Cl)ccc2OC2(C)CC2)N(C)C1=O [Example 260] ({Oxane2carbonyl(2R-CF3)}-[Pro(trans-4-F)][Gly(cPr)][NMehhhLys(Me)]L[X64]; lactam 3-C),GI50,NCI-H1048 cells,40 nM
same,GI50,WI-38 cells,6390 nM
same,IC50,CyclinB1/CDK1; [1],20 nM
same,IC50,CyclinA2/CDK2; [2],50 nM
same,GI50,OVCAR3 cells,40 nM
same,IC50,CyclinE1/CDK2; [3],100 nM
"CC(C)C[C@@H]1NC(=O)[C@@H](N(C)C(=O)[C@@H](NC(=O)[C@@H]2C[C@@H](F)CN2C(=O)C2(C(F)(F)F)CC(F)(F)C2)C2CC2)CCCCCCCN(C)C(=O)[C@H](Cc2cc(Cl)ccc2-c2ccc(N3CCN(C)[C@@H](C)C3)cc2)N(C)C1=O [Example 409] ({cBuCO(3,3-F2-1-CF3)}-[Pro(trans-4-F)][Gly(cPr)][NMehhhLys(Me)]L[X1]; lactam 3-C)",GI50,NCI-H1048 cells,10 nM
same,GI50,WI-38 cells,2460 nM
same,IC50,CyclinB1/CDK1; [1],20 nM
same,IC50,CyclinA2/CDK2; [2],20 nM
same,GI50,OVCAR3 cells,10 nM
same,IC50,CyclinE1/CDK2; [3],670 nM
CC(C)C[C@@H]1NC(=O)[C@@H](N(C)C(=O)[C@@H](NC(=O)[C@@H]2C[C@@H](F)CN2C(=O)C2(C(F)(F)F)CCC2)C2CC2)CC=CCCCCN(C)C(=O)[C@H](Cc2cc(Cl)ccc2-c2cncnc2)N(C)C1=O [Example 35],GI50,NCI-H1048 cells,170 nM
same,GI50,WI-38 cells,12400 nM
same,IC50,CyclinB1/CDK1; [1],20 nM
same,IC50,CyclinA2/CDK2; [2],120 nM
same,GI50,OVCAR3 cells,350 nM
same,IC50,CyclinE1/CDK2; [3],1690 nM
"CC(C)C[C@@H]1NC(=O)[C@@H](N(C)C(=O)[C@@H](NC(=O)[C@@H]2C[C@@H](F)CN2C(=O)C2(C(F)(F)F)CC(F)(F)C2)C2CC2)CCCCCCCN(C)C(=O)[C@H](Cc2cc(F)ccc2-c2ccc(N3CCN(C)CC3)cc2)N(C)C1=O [Example 353] ({cBuCO(3,3-F2-1-CF3)}-[Pro(trans-4-F)][Gly(cPr)][NMehhhLys(Me)]L[X12]; lactam 3-C)",GI50,NCI-H1048 cells,10 nM
same,GI50,WI-38 cells,3490 nM
same,IC50,CyclinB1/CDK1; [1],20 nM
same,IC50,CyclinA2/CDK2; [2],20 nM
same,GI50,OVCAR3 cells,10 nM
same,IC50,CyclinE1/CDK2; [3],220 nM
"CC(C)C[C@@H]1NC(=O)[C@@H](N(C)C(=O)[C@@H](NC(=O)[C@@H]2C[C@@H](F)CN2C(=O)C2(C(F)(F)F)CC(F)(F)C2)C2CC2)CCCCCCCN(C)C(=O)[C@H](Cc2cc(Cl)ccc2-c2cnn(C)c2)N(C)C1=O [Example 49] ({cBuCO(3,3-F2-1-CF3)}-[Pro(trans-4-F)][Gly(cPr)][NMehhhLys(Me)]L[X22]; lactam 3-C)",GI50,NCI-H1048 cells,10 nM
same,GI50,WI-38 cells,11500 nM
same,IC50,CyclinB1/CDK1; [1],20 nM
same,IC50,CyclinA2/CDK2; [2],20 nM
same,GI50,OVCAR3 cells,10 nM
same,IC50,CyclinE1/CDK2; [3],350 nM
"CC(C)C[C@@H]1NC(=O)[C@@H](N(C)C(=O)[C@H](CCCO)NC(=O)[C@@H]2C[C@@H](F)CN2C(=O)C2(C(F)(F)F)CC(F)(F)C2)CCCCCCCN(C)C(=O)[C@H](Cc2cc(Cl)ccc2-c2ccc(N3CCOCC3)cc2)N(C)C1=O [Example 421] ({cBuCO(3,3-F2-1-CF3)}-[Pro(trans-4-F)][Nva(5-OH)][NMehhhLys(Me)]L[NMePhe(2-(4-MorPh),5-Cl)]; lactam 3-C)",GI50,NCI-H1048 cells,10 nM
same,GI50,WI-38 cells,19100 nM
same,IC50,CyclinB1/CDK1; [1],20 nM
same,IC50,CyclinA2/CDK2; [2],20 nM
same,GI50,OVCAR3 cells,10 nM
same,IC50,CyclinE1/CDK2; [3],510 nM
"CC(C)C[C@@H]1NC(=O)[C@@H](N(C)C(=O)[C@@H](NC(=O)[C@@H]2C[C@@H](F)CN2C(=O)C2(C(F)(F)F)CC(F)(F)C2)C2CC2)CCCCCCCN(C)C(=O)[C@H](Cc2cc(Cl)ccc2-c2ccc(N3C[C@@H]4C[C@H]3CN4C)cc2)N(C)C1=O [Example 357] ({cBuCO(3,3-F2-1-CF3)}-[Pro(trans-4-F)][Gly(cPr)][NMehhhLys(Me)]L[X52]; lactam 3-C)",GI50,NCI-H1048 cells,20 nM
same,GI50,WI-38 cells,3140 nM
same,IC50,CyclinB1/CDK1; [1],20 nM
same,IC50,CyclinA2/CDK2; [2],30 nM
same,GI50,OVCAR3 cells,50 nM
same,IC50,CyclinE1/CDK2; [3],1970 nM
CC(C)C[C@@H]1NC(=O)[C@@H](N(C)C(=O)[C@@H](NC(=O)[C@@H]2C[C@@H](F)CN2C(=O)C2(C(F)(F)F)CC(F)(F)C2)C2CC2)CC=CCCCCNC(=O)[C@H](Cc2cc(Cl)ccc2C2=CCN(C(=O)C(C)C)CC2)N(C)C1=O [Example 90],GI50,NCI-H1048 cells,260 nM
same,GI50,WI-38 cells,4130 nM
same,IC50,CyclinB1/CDK1; [1],20 nM
same,IC50,CyclinA2/CDK2; [2],90 nM
same,GI50,OVCAR3 cells,230 nM
same,IC50,CyclinE1/CDK2; [3],3700 nM
"CC(C)C[C@@H]1NC(=O)[C@@H](N(C)C(=O)[C@@H](NC(=O)[C@@H]2C[C@@H](F)CN2C(=O)C2(C(F)(F)F)CC(F)(F)C2)C2CC2)CCCCCCCN(C)C(=O)[C@H](Cc2cc(Cl)ccc2-c2cnn3c2COCC3)N(C)C1=O [Example 233] ({cBuCO(3,3-F2-1-CF3)}-[Pro(trans-4-F)][Gly(cPr)][NMehhhLys(Me)]L[X83]; lactam 3-C)",GI50,NCI-H1048 cells,30 nM
same,GI50,WI-38 cells,15200 nM
same,IC50,"CyclinB1/CDK1; read-out: Cyclin B FP IC50; 10 nM Cyclin B1/Cdk1, 2 nM FAM probe; average of 2-3 independent experiments",20 nM
same,IC50,CyclinA2/CDK2,50 nM
same,GI50,OVCAR3 cells,30 nM
same,IC50,CyclinE1/CDK2,1600 nM
"Cc1cc(-c2ccc(Cl)cc2C[C@H]2C(=O)N(C)CCCCCCC[C@H](N(C)C(=O)[C@@H](NC(=O)[C@@H]3C[C@@H](F)CN3C(=O)C3(C(F)(F)F)CC(F)(F)C3)C3CC3)C(=O)N[C@@H](CC(C)C)C(=O)N2C)ccc1N1CCN(C)CC1 [Example 374] ({cBuCO(3,3-F2-1-CF3)}-[Pro(trans-4-F)][Gly(cPr)][NMehhhLys(Me)]L[X36]; lactam 3-C)",GI50,NCI-H1048 cells,10 nM
same,GI50,WI-38 cells,2220 nM
same,IC50,CyclinB1/CDK1; [1],20 nM
same,IC50,CyclinA2/CDK2; [2],20 nM
same,GI50,OVCAR3 cells,10 nM
same,IC50,CyclinE1/CDK2; [3],870 nM
